Results reported in ChEMBL document CHEMBL3045919, “Disease-controlling effect of a novel fungicide pyribencarb against Botrytis cinerea” (J Pestic Sci, 2010).
Values after ≈ are worked out from the molar mass of the structure shown. Active and inactive are the calls of the source. The rule behind the calls is not given here.

Columns and labels:
Botrytis cinerea [1] = test: Antifungal activity against Botryotinia fuckeliana in Cucumber seedlings assessed as reduction of gray mold diseases compound spraying was performed 3 hr prior to inoculation by preventive effect assay; assay type: functional, organism-based
Botrytis cinerea [2] = test: Antifungal activity against Botryotinia fuckeliana in Kidney bean assessed as Kidney bean gray mold diseased pods in field trials at 500 ug/ml 3 applications at 9 days intervals (reference value: 21%); assay type: functional
Botrytis cinerea [3] = test: Antifungal activity against Botryotinia fuckeliana in Eggplant seedlings assessed as Eggplant gray mold diseased flowers and fruits in field trials at 200 ug/ml 3 applications at 7 days intervals (reference value: 52.7%); assay type: functional
Botrytis cinerea [4] = test: Antifungal activity against Botryotinia fuckeliana in Eggplant seedlings assessed as Eggplant gray mold diseased flowers and fruits in field trials at 500 ug/ml 3 applications at 7 days intervals (reference value: 52.7%); assay type: functional
Botrytis cinerea [5] = test: Antifungal activity against Botryotinia fuckeliana in Kidney bean assessed as Kidney bean gray mold diseased pods in field trials at 200 ug/ml 3 applications at 9 days intervals (reference value: 21%); assay type: functional
Botrytis cinerea [6] = test: Antifungal activity against Botryotinia fuckeliana in Eggplant seedlings assessed as Eggplant gray mold diseased flowers and fruits in field trials at 100 ug/ml 3 applications at 7 days intervals (reference value: 52.7%); assay type: functional
Botrytis cinerea [7] = test: Antifungal activity against Botryotinia fuckeliana in Cucumber seedlings assessed as reduction of gray mold diseases; assay type: functional, organism-based
Botrytis cinerea [8] = test: Antifungal activity against Botryotinia fuckeliana in Cucumber seedlings assessed as reduction of gray mold diseases at 3 ug/ml compound spraying was performed 24 hr after inoculation by curative effect assay; assay type: functional; parameters: scale not given: the % may be the effect or the level left
Cucumis sativus = test: Translaminar activity against kidney bean gray mold assessed as drug transport in Phaseolus vulgaris (kidney bean) from adaxial to abaxial at 100 to 200 ug/ml measured after 3 days; assay type: ADME, organism-based; conditions: in vivo, 72 h
Botrytis cinerea [9] = test: Antifungal activity against Botryotinia fuckeliana in Kidney bean assessed as Kidney bean gray mold diseased pods in field trials at 100 ug/ml 3 applications at 9 days intervals (reference value: 21%); assay type: functional
Botrytis cinerea [10] = test: Antifungal activity against Botryotinia fuckeliana in Cucumber seedlings cotyledon stage assessed as suppression of gray mold diseases measured after 7 days by rain fastness activity assay; assay type: functional, organism-based
Botrytis cinerea [11] = test: Antifungal activity against Botryotinia fuckeliana in Cucumber seedlings assessed as reduction of gray mold diseases at 3 ug/ml compound spraying was performed 48 hr after inoculation by lesion development inhibitory assay; assay type: functional; parameters: scale not given: the % may be the effect or the level left
Botrytis cinerea [12] = test: Antifungal activity against Botryotinia fuckeliana in Cucumber seedlings assessed as reduction gray mold diseases at 3 ug/ml compound spraying was performed 3 hr prior to inoculation by preventive effect assay; assay type: functional; parameters: scale not given: the % may be the effect or the level left

O=C(Nc1ccccc1-c1ccc(Cl)cc1)c1cccnc1Cl [BOSCALID]
EC50 (Botrytis cinerea [1]): 0.8 µg/mL (≈ 2.33 µM)

CC1(C(=O)Nc2ccc(O)c(Cl)c2Cl)CCCCC1 [FENHEXAMID]
EC50 (Botrytis cinerea [1]): 2.13 µg/mL (≈ 7.05 µM)

O=[N+]([O-])c1cc(C(F)(F)F)c(Cl)c([N+](=O)[O-])c1Nc1ncc(C(F)(F)F)cc1Cl [FLUAZINAM]
Activity (Botrytis cinerea [2]): 7.8%

N#Cc1c[nH]cc1-c1cccc2c1OC(F)(F)O2 [FLUDIOXONIL]
Activity (Botrytis cinerea [3]): 16.8%

CC12CC1(C)C(=O)N(c1cc(Cl)cc(Cl)c1)C2=O (stereo not drawn) [PROCYMIDONE]
Activity (Botrytis cinerea [2]): 4.6%
Activity (Botrytis cinerea [4]): 12.3%

COC(=O)NCc1cc(/C(C)=N/OCc2cccc(C)n2)ccc1Cl [Pyribencarb]
Activity (Botrytis cinerea [5]): 3.7%
Activity (Botrytis cinerea [6]): 9.8%
EC50 (Botrytis cinerea [7]): 0.006 µg/mL (≈ 0.0166 µM)
MIC (Botrytis cinerea [7]): 0.1 µg/mL (≈ 0.276 µM)
Activity (Botrytis cinerea [8]): 80.4%
Activity (Botrytis cinerea [3]): 3.4%
Drug transport (Cucumis sativus): Active
Activity (Botrytis cinerea [9]): 5.3%
inhibition (Botrytis cinerea [10]): Active
Activity (Botrytis cinerea [11]): 88.5%
Activity (Botrytis cinerea [12]): 72.1%
EC50 (Botrytis cinerea [1]): 0.55 µg/mL (≈ 1.52 µM)
